Experimental data published in patent US20250221957A1, “PS[…] AND THEIR USE FOR TREATING […] AND NE[…] DISORDERS” (Transcend Therapeutics, Inc., priority 2021, published 2025).

Key:
[1] = target: vesicular monoamine transporter 2 (VMAT2) (Homo sapiens, UniProt Q05940); conditions: cited from earlier work
[2] = cited from earlier work
[3] = target: serotonin transporter (Homo sapiens, UniProt P31645); conditions: cited from earlier work
[4] = tested on: Sprague Dawley rats; experiment: Forced Swim Test (FST); type: in vivo, rat; conditions: for reduction in immobility compared to saline vehicle: single dose 30 min prior to testing (Example 6)
Excerpt: The Forced Swim Test (FST) is a classic, and the most used preclinical behavioral assay to screen compounds with antidepressant-like activity and has high predictive and face validity (Porsolt et al. (1977) Nature 266:730; Borsini and Meli (1988) Psychopharmacology 94:147). The premise of the FST is that when rats are placed into a cylinder filled with water, they will initially try to escape, but over time will become immobile. This increased immobility reflects behavioral despair, modeling a depressive-like state.
Animals: Male Sprague Dawley rats (Charles River Laboratories) weighing 180-200 g on arrival, were used for this study which took place at Melior Discovery (Exton, PA). Rats acclimated to their home cages for at least one week before testing, were maintained in a controlled environment on a 12 h light/dark cycle, with no more than 2 rats per cage. Animals received ad libitum access to food and water and were assigned randomly to treatment groups. Animal use and procedures were in accordance with established protocols approved by the IACUC committee, Melior Standard Operation Procedures (SOP), and Transcend Therapeutics.
Forced Swim Test (FST): In the FST trial, rats were be placed in a circular plexiglass container filled with water, with no means of escape. Water temperature was maintained at 22-25° C. and changed for every animal. After an acclimation period, rats were timed for inactivity (failure to struggle), activity, swim time and climbing time. Day 1 consisted of a 15 min acclimation trial, and Day 2 (24 h later) consisted of the 5 min test. A time sampling procedure was employed where animals were observed every 5 sec and scored for immobility, swimming, or climbing. Fluoxetine (10 mg/kg, IP, Sigma Aldrich) or 0.9% sterile saline vehicle (vehicle 3× group) were administered 23.5, 5, and 1 h before testing in the FST. […] The experimenter was blinded to treatment.
Statistical Analysis: Data for each parameter of the test (immobility, swimming, or climbing) is expressed as the mean±SEM. Differences between groups were determined by one-way ANOVA and post-hoc Tukey's test with a p-value of less than 0.05 indicating statistically significant differences.
Forced Swim Test: In the FST trial, rats were be placed in a circular plexiglass container filled with water, with no means of escape. Water temperature was maintained at 22-25° C. and changed for every animal. After an acclimation period, rats were timed for inactivity (failure to struggle), activity, swim time and climbing time. Day 1 consisted of a 15 min acclimation trial, and Day 2 (24 h later) consisted of the 5 min test. A time sampling procedure was employed where animals were observed every 5 sec and scored for immobility, swimming, or climbing. Fluoxetine (10 mg/kg, IP, Sigma Aldrich) or 0.9% sterile saline vehicle (vehicle 3× group) were administered 23.5, 5, and 1 h before testing in the FST. 2C-B (2.5, 10, or 20 mg/kg, IP, Cayman Chemical) or 0.9% saline vehicle (vehicle 1× group) were administered 30 min prior to FST testing. The experimenter was blinded to treatment.
Drug Treatment: Fluoxetine (10 mg/kg, IP, Sigma Aldrich) or 0.9% sterile saline vehicle were administered 23.5, 5, and 1 h before testing in the FST. […] Control animals received fluoxetine alone, methylone alone, or saline vehicle.
Forced Swim Test: In the FST trial, rats were be placed in a circular plexiglass container filled with water, with no means of escape. Water temperature was maintained at 22-25° C. and changed for every animal. After an acclimation period, rats were timed for inactivity (failure to struggle), activity, swim time and climbing time. The experimenter and scorer were blind to treatment group. Day 1 consisted of a 15 min acclimation trial, and Day 2 (24 h later) consisted of the 5 min test. A time sampling procedure was employed where animals were observed every 5 sec and scored for immobility, swimming, or climbing. […]

[5] = target: serotonin (5HT) transporter (Homo sapiens, UniProt P31645); experiment: Radioligand binding, [3H] citalopram
Sequence of serotonin (5HT) transporter (P31645 whole entry): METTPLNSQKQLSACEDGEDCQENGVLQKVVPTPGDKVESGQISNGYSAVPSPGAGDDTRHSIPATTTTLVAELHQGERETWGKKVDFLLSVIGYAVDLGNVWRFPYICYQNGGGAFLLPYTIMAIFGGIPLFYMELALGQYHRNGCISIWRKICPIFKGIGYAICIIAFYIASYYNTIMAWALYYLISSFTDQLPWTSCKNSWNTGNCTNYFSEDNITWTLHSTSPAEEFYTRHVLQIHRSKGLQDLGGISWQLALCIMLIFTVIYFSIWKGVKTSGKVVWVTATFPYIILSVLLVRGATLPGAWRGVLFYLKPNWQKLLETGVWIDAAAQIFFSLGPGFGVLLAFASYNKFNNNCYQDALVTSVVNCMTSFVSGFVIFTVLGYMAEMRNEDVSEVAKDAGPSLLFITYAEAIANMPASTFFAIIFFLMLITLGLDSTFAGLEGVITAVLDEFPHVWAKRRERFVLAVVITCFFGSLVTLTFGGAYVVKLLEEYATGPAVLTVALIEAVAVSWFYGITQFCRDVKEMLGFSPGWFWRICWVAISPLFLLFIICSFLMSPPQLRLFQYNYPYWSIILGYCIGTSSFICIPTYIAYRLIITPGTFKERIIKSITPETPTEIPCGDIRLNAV

[6] = tested on: drug users / humans; conditions: methylone 50 mg in humans (Poyatos 2022); cited from earlier work
[7] = target: norepinephrine (NE) transporter (Homo sapiens, UniProt P23975); experiment: Radioligand binding, [3H] nisoxetine
Sequence of norepinephrine (NE) transporter (P23975 whole entry): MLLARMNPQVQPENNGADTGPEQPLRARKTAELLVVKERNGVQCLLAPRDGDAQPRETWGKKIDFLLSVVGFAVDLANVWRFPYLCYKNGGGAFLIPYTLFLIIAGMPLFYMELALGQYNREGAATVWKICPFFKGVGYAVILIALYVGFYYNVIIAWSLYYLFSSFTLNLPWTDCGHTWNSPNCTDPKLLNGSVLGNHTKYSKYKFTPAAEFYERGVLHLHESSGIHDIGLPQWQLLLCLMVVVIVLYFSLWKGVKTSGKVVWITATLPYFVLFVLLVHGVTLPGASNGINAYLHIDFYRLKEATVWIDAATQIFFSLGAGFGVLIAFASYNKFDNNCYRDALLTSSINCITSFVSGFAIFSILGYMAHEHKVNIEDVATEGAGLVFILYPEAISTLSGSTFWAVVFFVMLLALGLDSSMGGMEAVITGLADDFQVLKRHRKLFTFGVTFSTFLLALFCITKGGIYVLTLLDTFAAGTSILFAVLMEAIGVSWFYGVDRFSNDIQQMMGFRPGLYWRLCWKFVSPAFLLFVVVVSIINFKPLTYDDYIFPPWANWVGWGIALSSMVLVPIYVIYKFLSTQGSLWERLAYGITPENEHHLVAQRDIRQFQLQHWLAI

[8] = target: dopamine (DA) transporter (Homo sapiens, UniProt Q01959); experiment: Radioligand binding, [3H] WIN35428
Sequence of dopamine (DA) transporter (Q01959 whole entry): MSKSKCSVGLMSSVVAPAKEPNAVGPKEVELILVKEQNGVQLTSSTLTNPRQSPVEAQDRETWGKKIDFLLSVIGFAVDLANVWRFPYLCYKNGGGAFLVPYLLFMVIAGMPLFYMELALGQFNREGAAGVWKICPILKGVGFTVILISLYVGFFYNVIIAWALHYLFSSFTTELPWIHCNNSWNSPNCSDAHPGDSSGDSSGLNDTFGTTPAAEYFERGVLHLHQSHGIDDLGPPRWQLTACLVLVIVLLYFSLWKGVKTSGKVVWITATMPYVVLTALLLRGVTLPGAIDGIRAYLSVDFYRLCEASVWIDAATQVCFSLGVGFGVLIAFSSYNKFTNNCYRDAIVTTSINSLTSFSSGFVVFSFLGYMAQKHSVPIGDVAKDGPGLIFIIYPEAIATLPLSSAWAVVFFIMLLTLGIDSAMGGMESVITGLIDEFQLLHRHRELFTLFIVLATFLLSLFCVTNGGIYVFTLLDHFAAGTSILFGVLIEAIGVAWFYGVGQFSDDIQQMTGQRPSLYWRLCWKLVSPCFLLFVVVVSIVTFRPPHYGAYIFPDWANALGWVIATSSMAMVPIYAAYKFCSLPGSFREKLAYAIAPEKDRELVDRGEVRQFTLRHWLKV

[9] = target: T1, serotonin transporter (SERT) (Rattus norvegicus, UniProt P31652); experiment: [3H]5HT uptake saturation in rat brain synaptosomes with or without methylone; type: biochemical
T1 construct: from tissue; host or cells: rat brain synaptosomes
T1 sequence (P31652 whole entry): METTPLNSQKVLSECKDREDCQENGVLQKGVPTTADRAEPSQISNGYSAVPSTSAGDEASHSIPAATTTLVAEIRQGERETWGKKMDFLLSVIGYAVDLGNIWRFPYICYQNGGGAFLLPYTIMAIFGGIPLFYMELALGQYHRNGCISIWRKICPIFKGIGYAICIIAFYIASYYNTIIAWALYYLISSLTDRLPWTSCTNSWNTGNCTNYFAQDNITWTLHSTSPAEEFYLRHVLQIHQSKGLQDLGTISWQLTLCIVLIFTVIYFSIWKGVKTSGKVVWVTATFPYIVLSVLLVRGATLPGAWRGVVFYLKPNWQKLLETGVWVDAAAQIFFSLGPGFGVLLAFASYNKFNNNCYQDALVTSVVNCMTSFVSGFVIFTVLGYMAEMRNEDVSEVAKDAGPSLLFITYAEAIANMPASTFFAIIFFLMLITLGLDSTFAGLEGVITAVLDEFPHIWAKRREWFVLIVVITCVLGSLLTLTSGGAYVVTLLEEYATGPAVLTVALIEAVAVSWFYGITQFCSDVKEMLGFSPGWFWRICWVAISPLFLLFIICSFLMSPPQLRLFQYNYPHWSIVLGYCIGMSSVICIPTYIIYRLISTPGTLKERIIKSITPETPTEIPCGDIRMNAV

[10] = tested on: patients with a primary diagnosis of PTSD; experiment: Methylone PTSD case series with long-term follow-up (Example 5): CGI-I and safety; type: in vivo, human
Excerpt: The patients were not given structured psychotherapy in conjunction with methylone treatment, which differs from recent studies of MDMA that emphasize the importance of a manualized psychedelic-assisted psychotherapy model.
No protectedhealth information was disclosed, and no consent was obtained from patients for use of their archival data. Case narratives were systematically compiled from data collected as part of routine clinical work. Diagnoses were confirmed by an experienced clinician using semi-structured interviews. Baseline symptom severity was evaluated using the Clinical Global Impressions Scale-Severity ([…]). Symptom improvement was evaluated using the Clinical Global Impressions Scale-Improvement (CGI-I) following dosing. […] Because these case narratives were examined retrospectively from routine clinical care records, and not gathered prospectively in a research study, more specific validated rating scales for assessing PTSD symptoms were not available. Additionally, follow-up varied, with the length of follow-up ranging from one week (Case 2) to 15 years (Case 16).
Dosing summary: Methylone was administered orally. Other medications were not changed during methylone treatment. […] In several cases, treatment was continued and, in some cases, the dose was further escalated in later sessions (see Table 5). Booster doses were included for 19 patients in one or more of the sessions. Starting doses were between 100 and 270 mg, and these as well as booster doses were selected based on clinical judgement.

[11] = rats, intraperitoneal administration

Sequence of vesicular monoamine transporter 2 (VMAT2) (Q05940 whole entry, species assumed): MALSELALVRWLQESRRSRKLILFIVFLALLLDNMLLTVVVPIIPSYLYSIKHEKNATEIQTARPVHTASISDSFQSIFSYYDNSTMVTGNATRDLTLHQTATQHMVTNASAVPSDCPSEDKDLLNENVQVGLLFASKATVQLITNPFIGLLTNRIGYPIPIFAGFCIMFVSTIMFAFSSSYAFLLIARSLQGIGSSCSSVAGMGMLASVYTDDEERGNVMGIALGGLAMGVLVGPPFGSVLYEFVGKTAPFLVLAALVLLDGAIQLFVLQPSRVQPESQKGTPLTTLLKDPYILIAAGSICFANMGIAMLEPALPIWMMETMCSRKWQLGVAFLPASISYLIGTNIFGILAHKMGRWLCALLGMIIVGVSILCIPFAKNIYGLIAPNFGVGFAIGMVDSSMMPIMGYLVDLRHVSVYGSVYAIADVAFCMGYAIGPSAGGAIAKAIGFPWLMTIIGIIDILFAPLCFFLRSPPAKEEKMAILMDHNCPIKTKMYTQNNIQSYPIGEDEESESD
Sequence of serotonin transporter (P31645 whole entry): as the sequence (P31645 whole entry) above

Compound: CNC(C)C(=O)c1ccc2c(c1)OCO2 (stereo not shown) [methylone, 3,4-methylenedioxy-N-methylcathinone]
- affinity for VMAT2 lower than that of MDMA [1]: about 13 ×
- half-life shorter than MDMA ([2]; rat, in vivo): > 50%
- half-life [2, 11]: 1 to 2 h
- time of peak brain and serum concentration [2, 11]: 15 to 30 min
- affinity for the serotonin transporter lower by comparison to MDMA [3]: 3 ×
- climbing behavior ([4]; Example 8): significantly increased climbing behavior
- reduced immobility compared to vehicle ([4]; Methylone alone, 5 mg/kg IP (Example 8)): 71%
- reduced immobility compared to vehicle ([4]; combined treatment: fluoxetine x3 plus Methylone 15 mg/kg IP (Example 8)): 95%
- reduction in immobility compared to saline vehicle ([4]; methylone 5 mg/kg IP): 54%
- reduction in immobility compared to saline vehicle ([4]; methylone 15 mg/kg IP): 99%
- reduction in immobility compared to saline vehicle ([4]; methylone 30 mg/kg IP): 96%
- climbing ([4]; methylone 5, 15, 30 mg/kg IP, Example 6): only increased at the lowest dose
- swimming ([4]; methylone mid and high doses (15, 30 mg/kg IP), Example 6): significantly increased swimming
- reduced immobility vs. vehicle ([4]; single dose of Methylone (5 mg/kg IP) after three prior doses of fluoxetine 10 mg/kg IP (Example 8)): 62%
- immobility time ([4]; single doses of 10 and 15 mg/kg methylone IP (Example 11)): reducing immobility time significantly
- immobility ([4]; two or three 5 mg/kg doses IP (Example 11)): significantly reduce immobility
- binding at the 5HT transporter [5]: confirmed methylone binding
- side effects [6]: no detectable side effects
- binding at the NE transporter [7]: confirmed methylone binding
- binding at the DA transporter [8]: confirmed methylone binding
- type of interaction at the SERT [9]: competitive
- Bmax of [3H]5HT uptake ([9]; in the presence of methylone): no decrease
- Kd of [3H]5HT uptake ([9]; in the presence of methylone): right shifted
- patients achieving CGI-I much improved or very much improved ([10]; 21 PTSD patients): 81%
- tolerability ([10]; 21 PTSD patients): generally well tolerated
- patients reporting a durable effect ([10]; durability captured for 17 of 21 patients): 16
- total adverse events noted ([10]; in three of the 21 patients, none severe): four
- patients with durable effect >six months ([10]; in vivo): 11
- patients achieving a CGI-I of 1 or 2 ([10]; of 21 PTSD patients): 17
- patients achieving CGI-I scores of 1 or 2 ([10]; patients who received only a single dose of methylone (n=9)): 89%
- patients with initial improvement after the initial session ([10]; patients with multiple methylone dosing sessions (n=12)): 83%
